Measurements as given in patent US11542266B1, “Substituted piperidines as BTK inhibitors” (HAISCO PHARMACEUTICALS PTE. LTD., priority 2019, dated 2023).
Structures can show the parent of a compound that is named as a salt.

System: Mino cells
Test: Inhibition of cell proliferation, Mino cells (Cell Viability Assay, 72 h)
Assay type: cell-based, human
Conditions: not given
Procedure: SU-DHL-4, Mino, and SU-DHL-6 cells, in the culture medium of RPMI1640+10% FBS, were cultured in an incubator at 37° C. under 5% CO2. Cells were plated in a 96-well plate. Specifically, SU-DHL-4 cells were at 20000/well, Mino and SU-DHL-6 cells were at 5000/well, with 90 μL/well. 10 μL of the compounds at different concentrations were added to each well. There were 3 replicate wells for each concentration, and the last column, added with DMSO, was used as a vehicle control group. The cultures were continued for 72 hours at 37° C. under 5% CO2. After 72 hours, 100 μL of detection reagent (Cell Viability Assay, Promega, G7573) was added to each well, and the cultures were uniformly mixed for 2 minutes, and incubated at room temperature for 10 minutes. The fluorescence signal value was measured with a microplate reader (PHERAstar FSX). The IC50 value of the compound on cell proliferation inhibition was calculated using Origin 9.2 software, and the inhibition rate at the highest concentration of the compound (Max inhi. %) was calculated according to formula (1). Max inhi. %=(1-T72 administration/T72 vehicle)×100 Formula (1).

Row | Structure (SMILES) | IC50 [nM]
1 | Nc1ncnc2c1c(-c1ccc(Oc3ccccc3)cc1)nn2C1CCN(C2CCN(C3CN(c4ccc5c(c4)C(=O)N(C4CCC(=O)NC4=O)C5=O)C3)CC2F)CC1 (stereo not drawn) [Compound 46-1, trans-5-(3-(4-(4-amino-3-(4-phenoxyphenyl)-1H-pyrazolo[3,4-d]pyrimidin-1-yl)-3′-fluoro-[1,4′-bipiperidin]-1′-yl)azetidin-1-yl)-2-(2,6-dioxopiperidin-3-yl)isoindoline-1,3-dione-P1] | 27
2 | Nc1ncnc2c1c(-c1ccc(Oc3ccccc3)cc1)nn2C1CCN(C2CCN(C3CN(c4ccc5c(c4)C(=O)N(C4CCC(=O)NC4=O)C5=O)C3)CC2F)CC1 (stereo not drawn) [Compound 49-1, cis-5-(3-(4-(4-amino-3-(4-phenoxyphenyl)-1H-pyrazolo[3,4-d]pyrimidin-1-yl)-3′-fluoro-[1,4′-bipiperidin]-1′-yl)azetidin-1-yl)-2-(2,6-dioxopiperidin-3-yl)isoindoline-1,3-dione-P1] | 113

Same assay, conditions: Homo sapiens

Row | Structure (SMILES) | IC50 [nM]
3 | Nc1ncnc2c1c(-c1ccc(Oc3ccccc3)cc1)nn2C1CCN(C2CN(C3CN(c4cccc5c4C(=O)N(C4CCC(=O)NC4=O)C5=O)C3)C2)CC1 (stereo not drawn) [Compound 27, 4-[3-[3-[4-[4-amino-3-(4-phenoxyphenyl)pyrazolo[3,4-d]pyrimidin-1-yl]-1-piperidyl]azetidin-1-yl]azetidin-1-yl]-2-(2,6-dioxo-3-piperidyl)isoindoline-1,3-dione] | 503
4 | Nc1ncnc2c1c(-c1ccc(Oc3ccccc3)cc1)nn2C1CCN(C2C[C@@H]3CN(C4CN(c5ccc6c(c5)C(=O)N(C5CCC(=O)NC5=O)C6=O)C4)C[C@@H]3C2)CC1 (stereo partly drawn) [Compound 59, 5-(3-((3aR,6aS)-5-(4-(4-amino-3-(4-phenoxyphenyl)-1H-pyrazolo[3,4-d]pyrimidin-1-yl)piperidin-1-yl)hexahydrocyclopenta[c]pyrrol-2(1H)-yl)azetidin-1-yl)-2-(2,6-dioxopiperidin-3-yl)isoindoline-1,3-dione] | 501
5 | Nc1ncnc2c1c(-c1ccc(Oc3ccccc3)cc1)nn2C1CCN(C2CN(C3CN(C4CN(c5ccc6c(c5)C(=O)N(C5CCC(=O)NC5=O)C6=O)C4)C3)C2)CC1 (stereo not drawn) [Compound 60, 5-(3-(4-(4-amino-3-(4-phenoxyphenyl)-1H-pyrazolo[3,4-d]pyrimidin-1-yl)piperidin-1-yl)-[1,3′:1′,3″-terazetidin]-1H-yl)-2-(2,6-dioxopiperidin-3-yl)isoindoline-1,3-dione] | 165
6 | Nc1ncnc2c1c(-c1ccc(Oc3ccccc3)cc1)nn2C1CCN(C2CN(C3CC4(CCN(c5ccc6c(c5)C(=O)N(C5CCC(=O)NC5=O)C6=O)CC4)C3)C2)CC1 (stereo not drawn) [Compound 62, 5-(2-(3-(4-(4-amino-3-(4-phenoxyphenyl)-1H-pyrazolo[3,4-d]pyrimidin-1-yl)piperidin-1-yl)azetidin-1-yl)-7-azaspiro[3.5]nonan-7-yl)-2-(2,6-dioxopiperidin-3-yl)isoindoline-1,3-dione] | 38
7 | Nc1ncnc2c1c(-c1ccc(Oc3ccccc3)cc1)nn2C1CCN(C2CC3(CCN(C4CN(c5ccc6c(c5)C(=O)N(C5CCC(=O)NC5=O)C6=O)C4)CC3)C2)CC1 (stereo not drawn) [Compound 50, 5-(3-(2-(4-(4-amino-3-(4-phenoxyphenyl)-1H-pyrazolo[3,4-d]pyrimidin-1-yl)piperidin-1-yl)-7-azaspiro[3.5]nonan-7-yl)azetidin-1-yl)-2-(2,6-dioxopiperidin-3-yl)isoindoline-1,3-dione] | 112

Same assay, conditions: inhibition rate at the highest concentration of the compound

Row | Structure (SMILES) | Mino Max inhi. % [%]
8 | Nc1ncnc2c1c(-c1ccc(Oc3ccccc3)cc1)nn2C1CCN(C2CN(C3CCN(C4CCN(c5ccc6c(c5)C(=O)N(C5CCC(=O)NC5=O)C6=O)CC4)CC3)C2)CC1 (stereo not drawn) [Compound 15, 5-[4-[4-[3-[4-[4-amino-3-(4-phenoxyphenyl)pyrazolo[3,4-d]pyrimidin-1-yl]-1-piperidyl]azetidin-1-yl]-1-piperidyl]-1-piperidyl]-2-(2,6-dioxo-3-piperidyl)isoindoline-1,3-dione] | 99.8
9 | NC(=O)c1c(-c2ccc(Oc3ccccc3)cc2)nn2c1NCC[C@H]2C1CCN(C2CCN(c3ccc4c(c3)C(=O)N(C3CCC(=O)NC3=O)C4=O)CC2)CC1 (stereo partly drawn) [Compound 48, (7S)-7-(1′-(2-(2,6-dioxopiperidin-3-yl)-1,3-dioxo-isoindolin-5-yl)-[1,4′-bipiperidin]-4-yl)-2-(4-phenoxyphenyl)-4,5,6,7-tetrahydropyrazolo[1,5-a]pyrimidine-3-carboxamide] | 95.7
10 | Nc1ncnc2c1c(-c1ccc(Oc3ccccc3)cc1)nn2C1CCN(C2CCC3(CC2)CN(C2CCC4(CC2)CN(c2ccc5c(c2)C(=O)N(C2CCC(=O)NC2=O)C5=O)C4)C3)CC1 (stereo not drawn) [Compound 55, 5-(7-(4-(4-amino-3-(4-phenoxyphenyl)-1H-pyrazolo[3,4-d]pyrimidin-1-yl)piperidin-1-yl)-2,2′-diaza[2,7′-bispiro[3.5]nonan]-2′-yl)-2-(2,6-dioxopiperidin-3-yl)isoindoline-1,3-dione] | 99.9
11 | Nc1ncnc2c1c(-c1ccc(Oc3ccccc3)cc1)nn2C1CCN(C2CC3(CCN(C4CC5(CCN(c6ccc7c(c6)C(=O)N(C6CCC(=O)NC6=O)C7=O)CC5)C4)CC3)C2)CC1 (stereo not drawn) [Compound 51, 5-(2′-(4-(4-amino-3-(4-phenoxyphenyl)-1H-pyrazolo[3,4-d]pyrimidin-1-yl)piperidin-1-yl)-7,7′-diaza[2,7′-bispiro[3.5]nonan]-7-yl)-2-(2,6-dioxopiperidin-3-yl)isoindoline-1,3-dione] | 99.7
12 | Nc1ncnc2c1c(-c1ccc(Oc3ccccc3)cc1)nn2C1CCN(C2CCN(C3CN(C4CCN(c5ccc6c(c5)C(=O)N(C5CCC(=O)NC5=O)C6=O)CC4)C3)C2)CC1 (stereo not drawn) [Compound 16, 5-[4-[3-[3-[4-[4-amino-3-(4-phenoxyphenyl)pyrazolo[3,4-d]pyrimidin-1-yl]-1-piperidyl]pyrrolidin-1-yl]azetidin-1-yl]-1-piperidyl]-2-(2,6-dioxo-3-piperidyl)isoindoline-1,3-dione] | 99.7
13 | Nc1ncnc2c1c(-c1ccc(Oc3ccccc3)cc1)nn2C1CCN(C2CN(C3CN(c4ccc5c(c4)C(=O)N(C4CCC(=O)NC4=O)C5=O)C3)C2)C1 (stereo not drawn) [Compound 29, 5-(3-(3-(4-amino-3-(4-phenoxyphenyl)-1H-pyrazolo[3,4-d]pyrimidin-1-yl)pyrrolidin-1-yl)-[1,3′-biazetidin]-1′-yl)-2-(2,6-dioxopiperidin-3-yl)isoindoline-1,3-dione trifluoroacetate] | 71.2
14 | Nc1ncnc2c1c(-c1ccc(Oc3ccccc3)cc1)nn2C1CCN(C2CC3CCC(C2)N3c2ccc3c(c2)C(=O)N(C2CCC(=O)NC2=O)C3=O)CC1 (stereo not drawn) [Compound 58, 5-(3-(4-(4-amino-3-(4-phenoxyphenyl)-1H-pyrazolo[3,4-d]pyrimidin-1-yl)piperidin-1-yl)-8-azabicyclo[3.2.1]octan-8-yl)-2-(2,6-dioxopiperidin-3-yl)isoindoline-1,3-dione] | 95.3
15 | Nc1ncnc2c1c(-c1ccc(Oc3ccccc3)cc1)nn2C1CCN(C2CC3CCC(C2)N3C2CN(c3ccc4c(c3)C(=O)N(C3CCC(=O)NC3=O)C4=O)C2)CC1 (stereo not drawn) [Compound 57, 5-(3-(3-(4-(4-amino-3-(4-phenoxyphenyl)-1H-pyrazolo[3,4-d]pyrimidin-1-yl)piperidin-1-yl)-8-azabicyclo[3.2.1]octan-8-yl)azetidin-1-yl)-2-(2,6-dioxopiperidin-3-yl)isoindoline-1,3-dione] | 99.2
